# Where two headings read alike, the source gives them in different places.
# How the values were obtained:
# K562 = assay: Inhibition of cancer cell proliferation, Alamar Blue assay (K562); type: cell-based; settings: Homo sapiens
# Experimental: (§1) The ability of the compounds described herein to kill or inhibit the proliferation of cancer cells was measured using the Alamar Blue assay using a 72 hours exposure. Results for different cancer cell lines are shown in, the Table 2 below (hematopoietic cell lines U937 and K562; MDA-MB-231 a breast cancer cell line; and NCI-H82 and Calu-6, two lung cancer cell lines): […]
# MDA-MB-231 = assay: Inhibition of cancer cell proliferation, Alamar Blue assay (MDA-MB-231); type: cell-based; settings: Homo sapiens
# Experimental: as §1
# U937 = assay: Inhibition of cancer cell proliferation, Alamar Blue assay (U937); type: cell-based; settings: Homo sapiens, U-937
# Experimental: as §1
# NCI-H82 = assay: Inhibition of cancer cell proliferation, Alamar Blue assay (NCI-H82); type: cell-based; settings: Homo sapiens
# Experimental: as §1
# Calu-6 = assay: Inhibition of cancer cell proliferation, Alamar Blue assay (Calu-6); type: cell-based; settings: Homo sapiens
# Experimental: as §1
# [1] = Microsomal stability in human liver microsomes; type: in vitro ADME
# From the text: Microsomal stability in vitro in different biologic media and species is ascertained when screening compounds to evaluate the rate at which a compound undergoes metabolism.
# [2] = Pharmacokinetics in Balbc mice; type: in vivo; settings: Balbc male mice
# Experimental: The pharmacokinetic parameters for several compounds listed above were determined in mice following IV (intravenous) or IP (intraperitoneal) administration. Briefly, six Balbc male mice 7 to 8 weeks old were used for each study. A dose of 5 mg/kg or 10 mg/kg was administered using a 5% DMSO/90% Captisol (20% in water) solution for ACT-CK-050 or FFF for ACT-CK-154. Blood samples were collected at different intervals. Plasma samples were extracted and analyzed using an LC-MS/MS method. Results are represented in FIGS. 1 and 2.
# Choline Kinase α (CKα) = molecular target: T1, Choline Kinase α (CKα) (Homo sapiens, UniProt P35790); assay: Inhibition of Choline Kinase α, kinase activity assay; type: biochemical; settings: recombinant CKα expressed in E. coli
# T1 construct: GST; made in house; host or cells: E. coli BL21(DE3)
# T1 sequence (P35790 whole entry): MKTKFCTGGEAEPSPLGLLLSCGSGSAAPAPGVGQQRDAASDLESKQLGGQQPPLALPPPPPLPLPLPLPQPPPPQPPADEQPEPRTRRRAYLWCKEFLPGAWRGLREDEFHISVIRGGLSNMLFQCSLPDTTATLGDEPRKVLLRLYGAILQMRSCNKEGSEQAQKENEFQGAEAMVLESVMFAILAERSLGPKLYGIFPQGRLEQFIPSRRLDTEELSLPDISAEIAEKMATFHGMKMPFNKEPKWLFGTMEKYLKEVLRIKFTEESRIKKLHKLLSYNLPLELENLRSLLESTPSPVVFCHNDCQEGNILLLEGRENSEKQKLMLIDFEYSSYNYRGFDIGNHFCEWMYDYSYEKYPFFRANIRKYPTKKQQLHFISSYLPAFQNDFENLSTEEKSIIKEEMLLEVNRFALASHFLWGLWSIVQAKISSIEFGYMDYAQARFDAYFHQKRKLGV
# Experimental: CKα was prepared by expression in E. coli (Bl21(DE3)) and purified by GST column and column chromatography. […] The recombinant protein was pure and active as determined by the results of a kinase activity assay.
# Jurkat = assay: Inhibition of cell proliferation (Jurkat); type: cell-based; settings: Homo sapiens, Table 2B, Leukemia, average, read-out: IC50 Aver, Jurkat
# H209 = assay: Inhibition of cell proliferation (H209); type: cell-based; settings: Homo sapiens, NCI-H209; Table 2B; Lung; average; read-out: IC50 Aver, H209
# Hela = assay: Inhibition of cell proliferation (Hela); type: cell-based; settings: Homo sapiens, Table 2B, Cervical, average, read-out: IC50 Aver, Hela
# HT-29 = assay: Inhibition of cell proliferation (HT-29); type: cell-based; settings: Homo sapiens, Table 2B, Colon, average, read-out: IC50 Aver, HT-29
# HCT-116 = assay: Inhibition of cell proliferation (HCT-116); type: cell-based; settings: Homo sapiens, Table 2B, Colon, average, read-out: IC50 Aver, HCT-116
# NCI-H2122 = assay: Inhibition of cell proliferation (NCI-H2122); type: cell-based; settings: Homo sapiens, Table 2B, Lung, average, read-out: IC50 Aver, NCI-H2122
# Colo-205 = assay: Inhibition of cell proliferation (Colo-205); type: cell-based; settings: Homo sapiens, Table 2B, Colorectal, average, read-out: IC50 Aver, Colo-205
# Hep G2 = assay: Inhibition of cell proliferation (Hep G2); type: cell-based; settings: Homo sapiens, HepG2; Table 2B; Liver; average; read-out: IC50 Aver, Hep G2
# A431 = assay: Inhibition of cell proliferation (A431); type: cell-based; settings: Homo sapiens, A-431; Table 2B; epidermi; average; read-out: IC50 Aver, A431
# MKN-45 = assay: Inhibition of cell proliferation (MKN-45); type: cell-based; settings: Homo sapiens, Table 2B, Gastric, average, read-out: IC50 Aver, MKN-45
# PC3 = assay: Inhibition of cell proliferation (PC3); type: cell-based; settings: Homo sapiens, PC-3; Table 2B; Prostate; average; read-out: IC50 Aver, PC3
# DU145 = assay: Inhibition of cell proliferation (DU145); type: cell-based; settings: Homo sapiens, DU-145; Table 2B; Prostate; average; read-out: IC50 Aver, DU145
# [3] = Permeability in Caco2 cells; type: in vitro ADME; settings: human, Caco-2, Caco2 cells
# From the text: (§2) The determination of the permeability in Caco2 cells is widely used in screening compounds to assess intestinal drug transport and predict absorption rates.
# Caco2 cells = assay: Permeability in Caco2 cells; type: in vitro ADME; settings: Caco2
# From the text: as §2
# [4] = Table 2A, Alamar Blue, 72 hours exposure, read-out: IC50s K562
# [5] = Table 2A, Alamar Blue, 72 hours exposure, read-out: IC50s MDA-MB231
# [6] = Table 2A, Alamar Blue, 72 hours exposure, read-out: IC50s U937
# [7] = Table 2A, Alamar Blue, 72 hours exposure, read-out: IC50s NCI-H82
# [8] = Table 2A, Alamar Blue, 72 hours exposure, read-out: IC50s Calu-6
# [9] = comparison of A-B and B-A values
# [10] = IV or IP, 5 mg/kg or 10 mg/kg, 5% DMSO/90% Captisol solution
smiles,measurement,setting,value
"CCOc1ccc(-c2nnc(SCC(=O)Nc3cc(C)cc(C)c3)[nH]2)cc1F [ACT-CK-154, N-(3,5-Dimethyl-phenyl)-2-[5-(4-ethoxy-3-fluoro-phenyl)-4H-[1,2,4]triazol-3-ylsulfanyl]acetamide]",IC50,K562; [4],800 nM
same,IC50,MDA-MB-231; [5],2.6 µM
same,IC50,U937; [6],20 nM
same,IC50,NCI-H82; [7],160 nM
same,IC50,Calu-6; [8],30 nM
same,% Metabolized (mean),[1],99%
same,Cmax,"[2]; IV, 5 mg/kg",3639 ng/mL
same,T1/2b,"[2]; IV, 5 mg/kg",9 min
same,Vd,"[2]; IV, 5 mg/kg",1.66 L/kg
"CCOc1ccc(-c2nnc(SCC(=O)N(C)c3cc(C)cc(C)c3)[nH]2)cc1 [ACT-CK-153, N-(3,5-Dimethyl-phenyl)-2-[5-(4-ethoxy-phenyl)-4H-[1,2,4]triazol-3-ylsulfanyl]-N-methyl-acetamide]",% Metabolized (mean),[1],99%
same,IC50,Choline Kinase α (CKα),30 µM
"CCOc1ccc(-c2nnc(SCC(=O)Nc3cccc(OC)c3)[nH]2)cc1 [ACT-CK-157, 2-[5-(4-Ethoxy-phenyl)-4H-[1,2,4]triazol-3-ylsulfanyl]-N-(3-methoxy-phenyl)-acetamide]",IC50,Choline Kinase α (CKα),50 µM
"CCOc1ccc(-c2nnc(SCC(=O)NC3CC(C)(C)NC(C)(C)C3)[nH]2)cc1 [ACT-CK-170, 2-[5-(4-Ethoxy-phenyl)-4H-[1,2,4]triazol-3-ylsulfanyl]-N-(2,2,6,6-tetramethyl-piperidin-4-yl)-acetamide]",IC50,Choline Kinase α (CKα),> 100 µM
"CCOc1ccc(-c2nnc(SCC(=O)Nc3cccc(C)c3)[nH]2)cc1 [ACT-CK-156, 2-[5-(4-Ethoxy-phenyl)-4H-[1,2,4]triazol-3-ylsulfanyl]-N-m-tolyl-acetamide]",IC50,K562; [4],3270 nM
same,IC50,MDA-MB-231; [5],7 µM
same,IC50,U937; [6],1100 nM
same,IC50,NCI-H82; [7],1700 nM
same,IC50,Calu-6; [8],1700 nM
"CCOc1ccc(-c2nnc(SCC(=O)Nc3cc(C)cc(C)c3)[nH]2)cc1 [ACT-CK-050, N-(3,5-Dimethyl-phenyl)-2-[5-(4-ethoxy-phenyl)-4H-[1,2,4]triazol-3-ylsulfanyl]-acetamide]",IC50,K562; [4],40 nM
same,IC50,"K562; Table 2B, Leukemia, average, read-out: IC50 Aver, K562",43 nM
same,IC50,MDA-MB-231; [5],18.5 µM
same,IC50,"MDA-MB-231; Table 2B, Breast, average, read-out: IC50 Aver, MDA-MB-231",18.5 µM
same,IC50,U937; [6],60 nM
same,IC50,"U937; Table 2B, lymphoma, average, read-out: IC50 Aver, U937",63 nM
same,IC50,NCI-H82; [7],90 nM
same,IC50,"NCI-H82; Table 2B, Lung, average, read-out: IC50 Aver, NCI-H82",96 nM
same,IC50,Calu-6; [8],60 nM
same,IC50,"Calu-6; Table 2B, Lung, average, read-out: IC50 Aver, Calu-6",57 nM
same,IC50,Jurkat,10.4 µM
same,IC50,H209,367 nM
same,IC50,Hela,22 nM
same,IC50,HT-29,89.7 µM
same,IC50,HCT-116,523 nM
same,IC50,NCI-H2122,173 nM
same,IC50,Colo-205,240 nM
same,IC50,Hep G2,163 nM
same,IC50,A431,117 nM
same,IC50,MKN-45,47 nM
same,IC50,PC3,240 nM
same,IC50,DU145,597 nM
same,% Metabolized (mean),[1],99%
same,Papp A→B,[3]; apical to basal,46.1 ×10⁻⁶ cm/s
same,Papp B→A,[3]; basal to apical,16.2 ×10⁻⁶ cm/s
same,Pgp substrate (in words),Caco2 cells; [9],not a Pgp substrate
same,active efflux (in words),Caco2 cells; [9],not actively effluxed out the cells
same,permeability properties (in words),Caco2 cells; high permeability determined as Papp>10×10^−6 cm/s,high permeability
same,Clearance (in words),[2]; [10],cleared too quickly
same,Plasma levels (in words),[2]; [10],too low
same,IC50,Choline Kinase α (CKα),20 µM
"CCOc1ccc(-c2nnc(SCC(=O)Nc3cc(OC)cc(OC)c3)[nH]2)cc1 [ACT-CK-109, N-(3,5-Dimethoxy-phenyl)-2-[5-(4-ethoxy-phenyl)-4H-[1,2,4]triazol-3-ylsulfanyl]-acetamide]",IC50,Choline Kinase α (CKα),18 µM
"CCOc1ccc(-c2nnc(SCC(=O)Nc3nc(C)cc(C)n3)[nH]2)cc1 [ACT-CK-148, N-(4,6-Dimethyl-pyrimidin-2-yl)-2-[5-(4-ethoxy-phenyl)-4H-[1,2,4]triazol-3-ylsulfanyl]-acetamide]",IC50,K562; [4],720 nM
same,IC50,MDA-MB-231; [5],29 µM
same,IC50,U937; [6],500 nM
same,IC50,NCI-H82; [7],8100 nM
same,IC50,Calu-6; [8],470 nM
same,% Metabolized (mean),[1],54%
